In patent US12679855B2, “Inhibitors of the enzyme enolase for precision oncology” (Board of Regents, The University of Texas System, priority 2019, dated 2026):
Entries after “also recorded” stand apart in the source; their conditions may differ. Read-outs that look alike come from different tables or passages of the source.

What was measured:
[1] = Human plasma stability assay (31P NMR); format: in vitro ADME
Method: VCY17 (left) and POMHEX (right) were prepared at 1.5 mM and added to human plasma in an NMR tube with 10% D2O for signal lock. […] As expected, emergence of the second peak after 1 h is due to hydrolysis of the acetyl-protected hydroxamate; the nitroimidazole moiety remains attached (mono-ester phosphonates always show ^31P-chemical shifts <20 ppm); intact phosphoramidate mixed ester was verified by ^31P-^1H HSQC showing resonance with protons at ~5 ppm (—CH2—O—P) and 4 ppm (—CH2—NH—P). Note that VCY17 and de-acetylated VCY17 can come out as doublets: this is because two chiral centers (Phosphorus and C1) yield cis/trans diasteromers.
VCY13 (FIG. 20A) and VCY31 (FIG. 20B) are thioesterase-labile phosphonoamidates. ENO1-deleted (D423, red), ENO1-isogenically rescued (D423 ENO1, blue), and ENO1-WT (LN319, grey) cells were treated with either VCY13 or VCY31 for 5 days. […] (FIG. 20B) VCY31 is a structurally similar pro-drug that uses 2-picolylamine, rather than benzylamine, as a second pro-drug leave group. […] 4 mM VCY31 was dissolved in 80% human plasma, 20% D2O and monitored by ^31P NMR (121 MHz) for 15 hours. Intact VCY31 has a ^31P NMR shift of 33 ppm. Hydrolysis of the thioester begins to occur after 2 hours, as indicated by the emergence of a peak at ~16 ppm.
Human plasma stability assay. POMHEX and VCY17 (1.5 mM) were added to human plasma (Sigma #P9523) in an NMR tube with 10% D2O for signal lock. ^31P NMR measurements (31P CPD, 1000 transients) were conducted every 30 minutes on the first day and every 24 hours, for 4 days afterwards.

[2] = tested on: xenografted tumor (D423 ENO1-homozygously deleted cell line); assay: Anti-tumor efficacy in xenografted tumor model; format: in vivo, Foxn1 nude mice
Method: Two HEX pro-drugs from different classes were tested for anti-tumor efficacy in xenografted tumor (D423 ENO1-homozygously deleted cell line) pre-clinical models (the standard immunodeficient Foxn1 nude mice). Tumor volumes (y-axis) were measured at the indicated dates (x-axis). Without treatment, tumors grow inexorably. […] This is notable because of the high esterase activity in mouse plasma, rodents are a sub-optimal model for pre-clinical efficacy evaluation of esterase-labile pro-drugs.

[3] = tested on: D423 (ENO1-deleted) glioma cells; assay: Cell proliferation assay (crystal violet) in ENO1-deleted glioma cells; format: cell-based; settings: for IC50: Glioma cell; for selectivity for ENO1-deleted cells: versus ENO1-rescued (D423 ENO1) and ENO1-intact (LN319) glioma cells
Method: Cell culture experiments. Cell culture experiments were conducted using the D423-MG cell line. 1p36 homozygous deletion in D423 includes the genes from CAMTAJ to SLC25A33; this includes ENO1. Isogenic ENO1 ectopically rescued lines were described previously (pCMV ENO1 5X) (Muller et al., 2012, which is incorporated by reference herein). An ENO1-intact cell line (LN319) was used as a control for sensitivity to Enolase inhibitors. Cells were routinely cultured in Dulbecco's modified Eagle's medium supplemented with 10% fetal bovine serum.
Cell proliferation assay. Cell Proliferation was determined by crystal violet staining, as previously described (Leonard et al., 2016 and Satani et al., 2016). The cell lines used were D423 (ENO1-deleted), D423 ENO1 (overexpressing ENO1) and LN319 (control). Glioma cells were seeded in 96-well plates and treated with varying concentrations of the inhibitors described above for 7 days. Cells were then washed with PBS, fixed with 10% formalin and stained with 0.05% crystal violet. Washed and dried plates were dye-extracted using 10% acetic acid, and absorbance was measured at 595 nm using Omegastar Plate Reader (BMG Labtech). To test the efficacy of the synthesized under hypoxic conditions, 1×10^4 cells were plated in 96-well plates, treated with VCY13, VCY15, VCY16, or VCY17 and incubated for 3 days in a hypoxia station (Don Whitley Scientific, Shipley, UK) set at 1% O2 and 5% CO2. Crystal violet staining was then performed as described above.
Additional Biological Data. Pro-drug inhibitor structures and corresponding IC50 values against ENO1-deleted cells are shown below in Table 2. The name and corresponding structures of all synthesized inhibitors are given in left and middle columns of each table. Pro-drug moieties in blue represent a second pro-drug leave group while those in red represent a first pro-drug leave group. Some inhibitors also contain an acetyl-protected hydroxamate, which is also a biologically labile moiety. ENO1-deleted (D423), ENO1-isogenically rescued (D423 ENO1), and ENO1-WT (LN319) cells were treated with either pro-drug inhibitor for 5 days at 21% O2, unless otherwise specified. […] IC50,D423 values at 21% O2 are given in the right columns of each table. Experiments conducted at 1% O2 (hypoxic) or 70% O2 (hyperoxic) conditions are noted, where appropriate.

[4] = format: in vitro ADME
Source text: Also described herein are synthesized phosphonate pro-drugs that forgo the use of phosphoramidases or esterases to release the active pharmacophore. These moieties include the attachment of 2-(hydroxymethyl)phenol (VCY27) and 3-(hexadecyloxy)propan-1-ol (ESB7). […] Cyclosal pro-drugs have previously been described for protecting phosphate-containing antiviral nucleotides; however, it was herein discovered that its delivery efficacy can be enhanced under high O2 conditions—a previously unknown finding. Separately, the 3-(hexadecyloxy)propan-1-ol is a pro-drug that has been applied to the antiviral nucleotide Brincidofovir (CMX-001). Appending the long chain ester to HEX may facilitate the pro-drug moiety to be used for the treatment of malignant glioma.

[5] = pH degradation assay (31P NMR in phosphate buffered D2O); format: physicochemical; settings: pH 3, 7, and 8.82, phosphate buffered D2O, NMR over 3 days
Method: (§1) To assure that benzylamine-protected HEX (FLM38) was not inhibiting Enolase directly, an in vitro spectrophotometric assay was performed to examine Enolase catalytic activity through conversion of 2-phoshpoglycerate (2-PG) to phosphoenolpyruvate (PEP). Without wishing to be bound by theory, if FLM38 were to inhibit Enolase directly, a dose-dependent decrease in absorbance at 240 nm would be observed, corresponding to decreased production of PEP. […] The possibility that the benzylamine moiety could undergo non-enzymatic hydrolysis in aqueous conditions was also examined. This study was performed by measuring the pH-dependence of compound degradation in phosphate buffered D2O via NMR over 3 days.
pH degradation assay. Solutions of 50 mM phosphate buffered D2O were prepared at pH 3, 7, and 8.82. For each condition, FLM38 (5 mg, […]) was dissolved in […] of phosphate buffered D2O and placed in NMR tubes. Hydrolysis was monitored by ^31P NMR and was evidenced by the degradation of the compound peak at ~20 ppm and the emergence of the hydrolyzed product at ~18 ppm. Scans were collected every 12 h on a Bruker 500 MHz NMR.

Enolase = Enolase enzymatic activity assay (spectrophotometric, 2-PG to PEP, 240 nm); format: biochemical, human; settings: serial dilutions beginning at 100 μM, native lysates
Method: as §1
Enolase enzymatic activity assay. The enzyme activity assay was performed according to a previously described procedure (Muller et al., 2012, which is incorporated by reference herein). […]
In the first, the lysates were treated with the serial dilutions of FLM38 (starting at 100 μM) and the reaction initiated by adding 2.5 mM 2-PG and optical density (OD) was measured at 240 nm using Omegastar Plate reader (BMG Labtech) over the course of 3 h.
In the second experiment, the lysates were pre-incubated in 96-well plates with serial dilutions of FLM38 (starting at 100 µM) at 37° C. for 20 h. The reaction was initiated by adding 2.5 mM 2-PG and OD was measured at 240 nm. […]

[6] = tested on: D423 (ENO1-deleted) glioma cells; assay: Cell proliferation assay (crystal violet) in ENO1-deleted glioma cells; format: cell-based
NCI-60 cell lines = assay: NCI-60 screening; format: cell-based; settings: NSC: D-813202
Source text: Without wishing to be bound by any particular theory, phosphoamidates may be removed across broad cell types. Whilst the IDX184 utilized benzylamine in its pro-drug structure, this drug was specifically directed at hepatocytes, and no evidence was forthcoming that it would be a pro-drug moiety applicable for glioblastoma or other cancer drug delivery. […] For example, FLM37 has been submitted to the NCI-60 screening (NSC: D-813202). All cancer cell lines were affected at concentrations of FLM37 above 10 μM, some with as little as 1 μM. […] More generally, this means that the amine as a second leaving group is applicable as a universal second leaving group for the delivery of phosphonate/phosphate containing bioactive compounds.

[7] = nitroimidazole in VCY17, nitrofuran in VCY15; cited from earlier work
[8] = Serum containing cell culture media stability assay; format: in vitro ADME
Method: Serum containing Cell Culture Media stability assay. POMHEX and VCY17 (1 mM) were added to DMEM-containing 10% Fetal Bovine Serum cell culture media in an NMR tube with 10% D2O for signal lock) and incubated at 37° C. ^31P NMR measurements (^31P CPD, 1000 transients) were conducted every 24 hours, for 4 days.

[9] = 4 mM in 80% human plasma, 20% D2O, 31P NMR
[10] = 120 h, 21% O2, 5 days where stated, read-out: IC50 against D423 (ENO1-deleted) cells
[11] = 120 h, ENO1-deleted (D423) cells, 5 days, 21% O2, read-out: IC50,D423

Structure (SMILES): CC(=O)ON1CCCC(P(=O)(NCc2ccccn2)OCCSC(=O)C(C)(C)C)C1=O (stereo not shown) [VCY31, 2-oxo-3-((2-(pivaloylthio)ethoxy)((pyridin-2-ylmethyl)amino)phosphoryl) piperidin-1-yl acetate]
- hydrolysis of the thioester begins to occur after [1, 9]: 2 h
- time without full hydrolysis [1, 9]: > 15 h
- tumor volume response ([2]; 90 mg/kg/day IP): suppressed tumor growth
- IC50 [3, 10]: 59 nM
- IC50 [3, 11]: 59 nM
- selectivity for ENO1-deleted cells [3]: dose-dependent selectivity for ENO1-deleted cells

Structure (SMILES): CCCCCCCCCCCCCCCCOCCCOP(=O)(O)C1CCCN(O)C1=O (stereo not shown) [ESB7, 3-(hexadecyloxy)propyl hydrogen (1-hydroxy-2-oxopiperidin-3-yl)phosphonate]
- stability under various pH conditions and in biological fluids [4]: robust stability
- IC50 [3, 11]: 202 nM
- selectivity for ENO1-deleted cells [3]: selective killing against ENO1-deleted cells

Structure (SMILES): O=C1C(P(=O)(O)NCc2ccccc2)CCCN1O (stereo not shown) [FLM38, N-benzyl-P-(1-hydroxy-2-oxopiperidin-3-yl)phosphonamidic acid]
- stability to non-enzymatic hydrolysis [5]: remained intact
- direct inhibition of Enolase (dose-dependent decrease in absorbance at 240 nm) (Enolase): does not inhibit Enolase directly

Structure (SMILES): O=C1C([P@]2(=O)OCc3ccccc3O2)CCCN1O (stereo partly drawn) [VCY27, 1-hydroxy-3-((S)-2-oxido-4H-benzo[d][1,3,2]dioxaphosphinin-2-yl)piperidin-2-one]
- stability under various pH conditions and in biological fluids [4]: robust stability
- tumor volume response ([2]; 1 IP and 1 SC injection, at 35 mg/kg/day each): immediate abrogation of tumor growth and eventual tumor regression
- IC50 [3, 10]: ~500 nM
- IC50 [3, 11]: 500 nM
- IC50 ([3]; D423 cells, 70% O2 (hyperoxic), read-out: IC50,D423 at 70% O2): 15 nM
- selectivity for ENO1-deleted cells [3]: selective killing against ENO1-deleted cells

Structure (SMILES): CC(C)(C)C(=O)OCOP(=O)(NCc1ccccc1)C1CCCN(O)C1=O (stereo not shown) [FLM37]
- IC50 ([6]; Glioma cell, 144 h, 6 days, starting concentration 1 μM, crystal violet (FIG. 7), read-out: IC50 towards D423 cells): 63 nM
- concentration at which some cancer cell lines were affected (NCI-60 cell lines): ≥ 1 µM
- concentrations at which all cancer cell lines were affected (NCI-60 cell lines): above 10 μM
- IC50 [3, 10]: 244 nM
- IC50 [3, 11]: 150 nM
- selectivity for ENO1-deleted cells [3]: selective killing towards D423 cells; also recorded: selective for ENO1-deleted cells

Structure (SMILES): CC(=O)ON1CCCC(P(=O)(NCc2ccccc2)OCc2cnc([N+](=O)[O-])n2C)C1=O (stereo not shown) [VCY17, 3-((benzylamino)((1-methyl-2-nitro-1H-imidazol-5-yl)methoxy)phosphoryl)-2-oxopiperidin-1-yl acetate]
- stable in ex-vivo human plasma for [1]: more than 48 hours
- stability in ex-vivo human plasma over the course of ([1]; 1.5 mM, human plasma with 10% D2O, 31P NMR): ≥ 24 h
- potency increase under 1% O2 ([6]; 4 days, 1% O2 versus 21% O2, ENO1-deleted glioma cells): greater than 15 fold
- redox potential of the nitroheterocycle [7]: −390 mV
- stable in serum-containing culture media [8]: more than 48 hours
- IC50 [3, 11]: 12700 nM
- IC50 ([3]; D423 cells, 1% O2 (hypoxic), read-out: IC50,D423 at 1% O2): 975 nM
- difference in bioactivation from 21% to 1% O2 ([3]; taking into account HIF-1α/hypoxia-driven increase in ENO2 expression): ≤ 50 fold
